Measured values published in patent publication US9839618B2, “Compositions and methods relating to proliferative diseases” (The Penn State Research Foundation, priority 2010, dated 2017).
Like-named read-outs stand apart in the source and are kept apart here.

System: 1205 Lu metastatic melanoma cells
Assay: MTS assay viability IC50, 1205 Lu
Assay type: cell-based, human
Conditions: for IC50: Homo sapiens, 1205Lu; for Selectivity ratio, fibroblasts versus 1205Lu: activity against fibroblasts FF2441 compared to melanoma cells
Experimental: The efficacy of leelamine to kill other cancer types is measured and the IC50 for cell lines derived from carcinomas of breast, lung, prostate, connective tissue, pancreas and colon determined. The MTS assay as described in Sharma, A. et al., Clin Cancer Res, 2009, 15:1674-85; and Madhunapantula, S. V. et al., Mol Cancer Ther, 2008, 7:1297-308 is used to establish the IC50 at 24, 48 and 72 hours of leelamine treatment for normal human epidermal melanocytes (FOM103), normal skin fibroblast cells (FF2441), normal skin keratinocytes (HFK) and compared to melanocytic lesion cells from the radial-, vertical- and metastatic melanoma stages. 5×10^3 cells per well in 100 μL of media are plated and grown in a 96-well plate for 48 to 72 hours and treated with either DMSO vehicle control or 0.62 to 40 μmol/L of leelamine for 24, 48 or 72 hours. IC50 values for each compound in μmol/L for respective cell lines are measured from three independent experiments using GraphPad Prism version 4.01 (GraphPad Software, La Jolla, Calif.). Leelamine is found to be not toxic to normal cells and effective to kill melanoma cells as well as non-melanoma cancer cells as shown in Table 1 in FIG. 20. Leelamine is 3- to 4-fold more specific at killing metastatic melanoma than normal cells, supporting cancer therapeutic utility at concentrations<2 μmol/L.
5×10^3 cells per well in 100 μL of media are plated and grown in a 96-well plate for 48 to 72 hours and treated with either DMSO vehicle control or 0.62 to 40 μmol/L of leelamine for 24, 48 or 72 hours. IC50 values for each compound in μmol/L for respective cell lines are measured from three independent experiments using GraphPad Prism version 4.01 (GraphPad Software, La Jolla, Calif.).
The IC50 and effect of liposomal preparations of leelamine on viability of normal human melanocytes, fibroblasts and melanoma cells UACC 903 and 1205 Lu are measured using the MTS assay (Promega, Madison, Wis.). Empty liposomes or liposomes containing abietic acid are used as controls. 5×10^3 cells per well in 100 μL of media are plated and grown in a 96-well plate for 48 or 72 hours for melanoma and normal cell lines, respectively. The cells are then treated with 0.62 to 40 μmol/L of liposome alone, a liposomal preparation of abietic acid, or with Nanolipolee-007 for 24 hours. IC50 values for each liposome in μmol/L for respective cell lines are measured from three independent experiments using GraphPad Prism version 4.01 (GraphPad Software, La Jolla, Calif.). Nanolipolee-007 retains the growth inhibitory activity of leelamine in killing melanoma cells in culture and specifically kills melanoma cells compared to normal cells, FIG. 24.
Dehydroabietylamine, its N-substituted derivatives and the corresponding dihydroabietylamine and its N-substituted derivatives are tested for their capability to inhibit cell growth of cancer cell lines, including melanoma (UACC 903, 1205Lu), breast (MCF-7), fibrosarcoma (HT-1080), colon (Caco-2), and prostate (PC-3) cancer cell lines. Viability and IC50 of normal human fibroblasts and cell lines from melanoma and other malignancies following treatment with all the agents are measured using the MTS assay (Promega, Madison, Wis.). Human fibroblast FF2441 cells, metastatic melanoma cell lines 1205 Lu and UACC 903 as well as cancer cell lines representing sarcoma (HT-1080), prostate (PC-3, LNCaP), breast (MCF-7) and lung (A-549) are maintained in DMEM (Invitrogen, Carlsbad, Calif.) supplemented with 10% FBS (Hyclone, Logan, Utah) in a 5% CO2 atmosphere, humidified 37° C. incubator. 5×10^3 cells per well in 100 μL of media are plated and grown in a 96-well plate for 48 to 72 h and treated with either DMSO vehicle control or 0.62 to 40 μmol/L for 24, 48 or 72 h. IC50 values for each compound in […] for respective cell lines are measured from three independent experiments using GraphPad Prism version 4.01 (GraphPad Software, La Jolla, Calif.). […]

[1] = Table 4, read-out: IC50 Metastatic Melanoma Cell line 1205Lu
[2] = Table 6, read-out: IC50 Metastatic melanoma 1205 Lu

IC50 [1] [µM]	IC50 [2] [µM]	IC50 (Example 8, read-out: IC50 1205Lu) [µM]	SMILES	Selectivity ratio, fibroblasts versus 1205Lu
> 100	> 100		CC(C)C1=CC2=CCC3[C@](C)(CCC[C@@]3(C)C(=O)O)C2CC1 (stereo partly drawn) [Abietic acid, (1R,4aR)-1,4a-dimethyl-7-(propan-2-yl)-1,2,3,4,4a,4b,5,6,10,10a-decahydrophenanthrene-1-carboxylic acid, reference compound]	
2.87 ± 0.07	2.87 ± 0.07	2.87	CC(C)C1=CC2=CCC3[C@](C)(CN)CCC[C@]3(C)C2CC1 (stereo partly drawn) [Compound 4a, {[(1R,4aR)-1,4a-dimethyl-7-(propan-2-yl)-1,2,3,4,4a,4b,5,6,10,10a-decahydrophenanthren-1-yl]methyl}amine]	~3
2.08 ± 0.05	2.08 ± 0.05		CC(C)c1ccc2c(c1)CCC1[C@](C)(CNC(=O)C(F)(F)F)CCC[C@]21C (stereo partly drawn) [Compound 5a, N-{[(1R,4aS)-1,4a-dimethyl-7-(propan-2-yl)-1,2,3,4,4a,9,10,10a-octahydrophenanthren-1-yl]methyl}-2,2,2-trifluoroacetamide]	> 2
	1.93 ± 0.16		CC(C)c1ccc2c(c1)CCC1[C@](C)(CN)CCC[C@]21C (stereo partly drawn) [Leelamine, [(1R,4aS)-1,4a-dimethyl-7-(propan-2-yl)-1,2,3,4,4a,9,10,10a-octahydrophenanthren-1-yl]methanamine]	> 4
